Source: ChEMBL document CHEMBL5291721, “A preclinical secondary pharmacology resource illuminates target-adverse drug reaction associations of marketed drugs” (Nat Commun, 2023)
Where a SMILES comes first, the peptide text is derived from it.

Legend:
[1] = molecular target: T1, Glucocorticoid receptor (Homo sapiens, UniProt P04150)
T1 sequence (P04150 whole entry): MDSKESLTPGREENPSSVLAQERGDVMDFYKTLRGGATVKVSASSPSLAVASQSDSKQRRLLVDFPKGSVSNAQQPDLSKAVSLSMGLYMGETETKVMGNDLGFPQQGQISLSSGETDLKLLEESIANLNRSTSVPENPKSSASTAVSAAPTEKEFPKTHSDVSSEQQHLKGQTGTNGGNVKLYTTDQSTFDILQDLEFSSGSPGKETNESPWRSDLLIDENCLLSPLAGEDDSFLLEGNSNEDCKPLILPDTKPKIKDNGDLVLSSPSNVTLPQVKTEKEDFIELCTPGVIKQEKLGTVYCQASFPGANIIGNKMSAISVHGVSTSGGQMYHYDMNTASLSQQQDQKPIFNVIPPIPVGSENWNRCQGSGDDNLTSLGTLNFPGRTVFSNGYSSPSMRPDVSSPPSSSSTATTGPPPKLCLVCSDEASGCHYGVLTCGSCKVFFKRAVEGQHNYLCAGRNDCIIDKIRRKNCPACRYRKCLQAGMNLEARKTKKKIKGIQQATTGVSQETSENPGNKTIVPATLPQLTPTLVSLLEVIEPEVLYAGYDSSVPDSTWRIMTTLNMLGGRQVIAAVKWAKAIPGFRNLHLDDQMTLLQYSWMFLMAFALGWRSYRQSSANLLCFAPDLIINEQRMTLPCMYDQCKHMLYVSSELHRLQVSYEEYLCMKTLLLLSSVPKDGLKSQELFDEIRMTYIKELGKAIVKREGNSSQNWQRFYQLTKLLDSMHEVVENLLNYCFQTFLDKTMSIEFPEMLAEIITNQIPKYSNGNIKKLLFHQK

[2] = molecular target: T2, Progesterone receptor (Homo sapiens, UniProt P06401); type: functional
T2 sequence (P06401 whole entry): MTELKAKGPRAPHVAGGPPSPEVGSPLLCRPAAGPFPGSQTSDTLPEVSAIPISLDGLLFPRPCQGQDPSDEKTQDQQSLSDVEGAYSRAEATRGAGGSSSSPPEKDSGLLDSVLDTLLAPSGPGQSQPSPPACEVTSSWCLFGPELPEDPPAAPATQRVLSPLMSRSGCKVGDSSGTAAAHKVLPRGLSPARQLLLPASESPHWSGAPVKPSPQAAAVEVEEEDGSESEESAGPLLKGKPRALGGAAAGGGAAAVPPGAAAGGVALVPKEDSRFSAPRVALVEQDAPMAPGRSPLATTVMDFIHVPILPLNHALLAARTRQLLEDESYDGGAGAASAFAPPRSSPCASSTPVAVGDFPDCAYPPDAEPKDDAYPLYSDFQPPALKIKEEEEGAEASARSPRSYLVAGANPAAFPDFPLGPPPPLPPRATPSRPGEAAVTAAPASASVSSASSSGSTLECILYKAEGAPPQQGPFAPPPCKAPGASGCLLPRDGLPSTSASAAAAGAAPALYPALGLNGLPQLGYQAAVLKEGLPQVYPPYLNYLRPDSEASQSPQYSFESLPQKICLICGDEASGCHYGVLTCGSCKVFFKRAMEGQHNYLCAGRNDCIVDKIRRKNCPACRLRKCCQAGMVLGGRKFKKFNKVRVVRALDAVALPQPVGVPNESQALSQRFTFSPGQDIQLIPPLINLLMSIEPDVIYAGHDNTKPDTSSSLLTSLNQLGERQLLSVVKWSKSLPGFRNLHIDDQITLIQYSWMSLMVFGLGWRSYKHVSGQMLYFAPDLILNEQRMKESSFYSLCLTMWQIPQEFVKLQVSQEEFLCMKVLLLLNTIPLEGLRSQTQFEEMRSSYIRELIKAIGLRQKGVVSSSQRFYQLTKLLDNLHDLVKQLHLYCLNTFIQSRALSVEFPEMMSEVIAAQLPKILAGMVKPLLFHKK

[3] = molecular target: T3, Type-1 angiotensin II receptor (Homo sapiens, UniProt P30556)
T3 sequence (P30556 whole entry): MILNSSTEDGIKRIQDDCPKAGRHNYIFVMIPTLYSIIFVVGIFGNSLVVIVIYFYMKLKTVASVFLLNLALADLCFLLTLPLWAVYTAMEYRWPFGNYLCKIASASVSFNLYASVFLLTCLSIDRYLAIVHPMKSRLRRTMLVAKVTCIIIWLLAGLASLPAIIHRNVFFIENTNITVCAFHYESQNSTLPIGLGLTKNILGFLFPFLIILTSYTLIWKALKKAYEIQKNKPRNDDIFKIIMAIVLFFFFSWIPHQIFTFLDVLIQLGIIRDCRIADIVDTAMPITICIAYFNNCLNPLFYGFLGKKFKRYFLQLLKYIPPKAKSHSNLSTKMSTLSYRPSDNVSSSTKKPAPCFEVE

[4] = molecular target: Sodium-dependent serotonin transporter (Homo sapiens, UniProt P31645)
Sequence of Sodium-dependent serotonin transporter (P31645 whole entry): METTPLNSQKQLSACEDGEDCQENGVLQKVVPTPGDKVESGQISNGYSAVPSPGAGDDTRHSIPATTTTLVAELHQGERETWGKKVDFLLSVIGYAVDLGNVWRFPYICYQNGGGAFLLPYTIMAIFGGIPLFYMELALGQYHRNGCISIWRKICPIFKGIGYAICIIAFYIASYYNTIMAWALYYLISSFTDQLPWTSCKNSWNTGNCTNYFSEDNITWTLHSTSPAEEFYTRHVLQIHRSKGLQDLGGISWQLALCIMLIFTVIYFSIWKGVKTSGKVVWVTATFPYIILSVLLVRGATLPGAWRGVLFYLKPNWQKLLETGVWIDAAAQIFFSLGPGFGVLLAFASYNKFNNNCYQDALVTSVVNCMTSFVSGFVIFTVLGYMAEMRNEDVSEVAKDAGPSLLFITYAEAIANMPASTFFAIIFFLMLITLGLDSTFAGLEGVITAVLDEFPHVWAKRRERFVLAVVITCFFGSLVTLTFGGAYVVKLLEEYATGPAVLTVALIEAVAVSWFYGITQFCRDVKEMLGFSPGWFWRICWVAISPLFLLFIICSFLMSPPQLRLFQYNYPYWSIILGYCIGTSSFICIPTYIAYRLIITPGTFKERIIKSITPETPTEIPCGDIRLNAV

[5] = molecular target: T4, Gastrin/cholecystokinin type B receptor (Homo sapiens, UniProt P32239)
T4 sequence (P32239 whole entry): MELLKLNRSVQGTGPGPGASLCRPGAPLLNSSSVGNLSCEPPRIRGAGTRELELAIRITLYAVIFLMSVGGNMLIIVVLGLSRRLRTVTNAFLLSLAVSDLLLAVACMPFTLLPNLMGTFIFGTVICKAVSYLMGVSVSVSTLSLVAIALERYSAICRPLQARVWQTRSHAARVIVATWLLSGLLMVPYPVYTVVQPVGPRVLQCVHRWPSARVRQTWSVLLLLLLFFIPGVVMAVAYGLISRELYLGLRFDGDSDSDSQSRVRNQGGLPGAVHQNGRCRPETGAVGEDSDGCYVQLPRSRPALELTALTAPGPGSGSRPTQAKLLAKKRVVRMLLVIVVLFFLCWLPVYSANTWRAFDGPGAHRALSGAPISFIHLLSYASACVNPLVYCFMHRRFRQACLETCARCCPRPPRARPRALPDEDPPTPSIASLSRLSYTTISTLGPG

[6] = molecular target: Melanocortin receptor 3 (Homo sapiens, UniProt P41968)
Sequence of Melanocortin receptor 3 (P41968 whole entry): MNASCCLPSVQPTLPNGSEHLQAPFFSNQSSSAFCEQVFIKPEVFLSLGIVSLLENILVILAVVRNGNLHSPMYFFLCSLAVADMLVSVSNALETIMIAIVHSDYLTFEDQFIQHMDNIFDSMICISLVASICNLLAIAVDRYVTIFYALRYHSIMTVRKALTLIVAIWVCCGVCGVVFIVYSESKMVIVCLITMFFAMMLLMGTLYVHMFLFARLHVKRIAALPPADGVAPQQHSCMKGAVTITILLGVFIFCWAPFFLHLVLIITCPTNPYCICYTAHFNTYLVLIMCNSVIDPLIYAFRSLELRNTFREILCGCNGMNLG

[7] = molecular target: Sodium-dependent dopamine transporter (Homo sapiens, UniProt Q01959)
Sequence of Sodium-dependent dopamine transporter (Q01959 whole entry): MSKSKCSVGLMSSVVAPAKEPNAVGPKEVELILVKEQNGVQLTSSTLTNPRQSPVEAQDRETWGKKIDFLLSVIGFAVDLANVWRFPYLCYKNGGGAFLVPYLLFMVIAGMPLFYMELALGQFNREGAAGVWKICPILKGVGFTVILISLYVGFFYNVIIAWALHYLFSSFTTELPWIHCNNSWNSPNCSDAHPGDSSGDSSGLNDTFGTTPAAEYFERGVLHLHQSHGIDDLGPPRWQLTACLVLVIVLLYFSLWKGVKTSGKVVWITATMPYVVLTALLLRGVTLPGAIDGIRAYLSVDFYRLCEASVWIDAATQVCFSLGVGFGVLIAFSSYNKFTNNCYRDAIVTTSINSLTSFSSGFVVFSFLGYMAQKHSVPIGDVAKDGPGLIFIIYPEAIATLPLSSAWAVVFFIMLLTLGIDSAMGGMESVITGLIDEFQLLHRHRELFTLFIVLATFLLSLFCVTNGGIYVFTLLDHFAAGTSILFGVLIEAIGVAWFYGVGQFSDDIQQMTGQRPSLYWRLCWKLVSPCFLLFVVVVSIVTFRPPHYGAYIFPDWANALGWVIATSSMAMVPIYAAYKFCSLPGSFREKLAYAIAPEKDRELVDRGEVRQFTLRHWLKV
Also: assay procedure not described here.

SMILES	AC50 [1] [µM]	AC50 [2] [µM]	AC50 [3] [µM]	AC50 [4] [µM]	AC50 [5] [µM]	AC50 [6] [µM]	AC50 [7] [µM]
CCN(CC)CCCN(c1ccccc1)C1Cc2ccccc2C1 [APRINDINE]	> 30	> 30	> 30	3.3	> 30	> 30	11.6
CN1CCCN=C1/C=C/c1cccc(O)c1 [OXANTEL]	> 30	> 30	> 30	> 30	> 10	> 30	> 30
O=C(O)c1nn(Cc2ccc(Cl)cc2Cl)c2ccccc12 [LONIDAMINE]	> 30	> 30	> 30	> 30	> 30	> 30	> 30
CS(=O)(=O)NC(=O)CCC/C=C\C[C@H]1C(=O)C[C@@H](O)[C@@H]1/C=C/[C@@H](O)COc1ccccc1 [SULPROSTONE]	> 30	> 30	> 30	> 30	> 30	> 30	> 30
O=C(O)c1ccc2nc(-c3cc(Cl)cc(Cl)c3)oc2c1	> 30	> 30	> 30	> 30	> 10	> 30	> 30
CCN(CC)Cc1nccn1-c1ccc([N+](=O)[O-])cc1C(=O)c1ccccc1Cl [NIZOFENONE]	> 30	> 30	> 30	> 30	> 30	> 30	> 30
CC(=O)OCC1=C(C(=O)O)N2C(=O)[C@@H](NC(=O)Cc3cccs3)[C@H]2SC1 [CEPHALOTHIN]	> 30	> 30	> 30	> 30	> 30	> 30	> 30
CCCCCCCC(=O)CC[C@@H]1[C@@H](C/C=C\CCCC(=O)O)[C@@H](O)C[C@H]1O [UNOPROSTONE]	> 30	> 30	> 30	> 30	> 30	> 30	> 30
CC(=O)Oc1cccc2c1C(=O)c1c(OC(C)=O)cc(C(=O)O)cc1C2=O [DIACEREIN]	> 30	> 30	> 30	23	> 30	> 30	> 30
CN(C)CCOCC(=O)NC12CC3CC(CC(C3)C1)C2 [TROMANTADINE]	> 30	> 30	> 30	> 30	> 30	> 30	> 30
CO/N=C(\C(=O)N[C@@H]1C(=O)N2C(C(=O)[O-])=C(C[n+]3ccc(N)n3CCO)CS[C@H]12)c1csc(N)n1 [CEFOSELIS]	> 30	> 30	> 30	> 30	> 30	> 30	> 30
Cc1ccc(S(=O)(=O)NC(=O)N[C@H]2[C@H]3CC[C@@](C)([C@H]2O)C3(C)C)cc1 [GLIBORNURIDE]	> 30	> 30	> 30	> 30	> 30	> 30	> 30
CCCO[C@H]1[C@@H]([C@@H](COCc2ccc(Cl)cc2)OCc2ccc(Cl)cc2)OC(OCC)[C@@H]1O (some centres undefined) [CLOBENOSIDE]	> 30	> 30	> 30	> 30	> 30	> 30	> 30
CC1=C(/C=C/C(C)=C/C=C/C(C)=C/C(=O)Oc2c(C)c(C)c3c(c2C)CCC(C)(CCCC(C)CCCC(C)CCCC(C)C)O3)C(C)(C)CCC1 (centres undefined) [TRETINOIN TOCOFERIL]	> 30	> 30	> 30	> 30	> 30	> 30	> 30
OCC(CO)N[C@H]1C[C@](O)(CO)[C@@H](O)[C@H](O)[C@H]1O [VOGLIBOSE]	> 30	> 30	> 30	> 30	> 30	> 30	> 30
CCN1C(=O)NC(c2ccccc2)C1=O (centres undefined) [ETHOTOIN]	> 30	> 30	> 30	> 30	> 30	> 30	> 30
CC1=C(C(=O)O)N2C(=O)[C@@H](NC(=O)[C@H](N)C3=CCC=CC3)[C@H]2SC1 [CEPHRADINE]	> 30	> 30	> 30	> 30	> 30	> 30	> 30
C[C@H](N)C(=O)N[C@@H](CCC(N)=O)C(=O)O [ALANYL GLUTAMINE] (H-Ala-Gln-OH)	> 30	> 30	> 30	> 30	> 30	> 30	> 30
CCCCC[C@H](O)CC[C@@H]1[C@H]2Cc3cccc(OCC(=O)O)c3C[C@H]2C[C@H]1O [TREPROSTINIL]	> 30	> 30	> 30	> 30	> 30	> 30	> 30
CO/N=C(\C(=O)N[C@@H]1C(=O)N2C(C(=O)O)=C(CSc3nc(C)c(CC(=O)O)s3)CS[C@H]12)c1csc(N)n1 [CEFODIZIME]	> 30	> 30	> 30	> 30	> 30	> 30	> 30
COc1ccc(C(Cl)=C(c2ccc(OC)cc2)c2ccc(OC)cc2)cc1 [CHLOROTRIANISENE]	> 30	> 30	> 30	> 30	> 30	> 30	> 30
COC(=O)c1ccc2c(c1)NC(=O)/C2=C(\Nc1ccc(N(C)C(=O)CN2CCN(C)CC2)cc1)c1ccccc1 [NINTEDANIB]	> 30	> 30	> 30	> 30	> 30	> 30	> 30
